SMILES strings stand for the structures. ≈ marks a conversion by molar mass, not a printed value. Marks after values point to notes of the source that are not given here. Numbered stars: 1 amine (or outer) side, 2 acyl side, 3 side chain; on linkers, the order of the positions; unused ones are H or OH. Square brackets hold non-standard residues; d marks the D form. Side chains are listed from the residue outwards. Peptide text beside a SMILES is read from it. * marks the point of attachment. C20 diacid = O=C(O)CCCCCCCCCCCCCCCCCCC(=O)*; C18 diacid = O=C(O)CCCCCCCCCCCCCCCCC(=O)*; γGlu = O=C(O)[C@H](CCC(=O)[*:2])N[*:1]; AEEA = NCCOCCOCC(=O)O; Aib = CC(C)(N)C(=O)O

Data on four compounds can be found in patent publication US12257287B2, “Glucagon-derived peptide and use thereof” (Tianjin Institute of Pharmaceutical Research Co., Ltd., priority 2018, dated 2025).

Data set [1] is described as follows: Accelerated chemical stability in injection solvent system (HPLC-UV). The format is physicochemical. Particulars: 14 days, phosphate buffer pH 7.3 with Tween 80 and phenol, main peak area vs day 0. In a few lines: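 Compound dissolved in 10 mM pH 8.5 sodium hydrogen phosphate buffer, adjusted to pH 7.3, with Tween 80 and phenol added. Solutions stored 14 days at 10 °C and 37 °C; HPLC-UV main-peak area by normalisation compared against day 0.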

The target of data set [2] is T1, human GLP-1 receptor (Homo sapiens, UniProt P43220).
T1 construct: expressed in transfected cells; host or cells: Chinese guinea pig lung cells [sic]
Put plainly: GLP-1 receptor mediated cAMP production in vitro. The format is cell-based. The note with it: cells transfected with human GLP-1 receptor, 20 min at 37° C., read-out: GLP-1R (nM EC50). The text has this:
(§1) The medium was removed, the cells were lysed, and cAMP values were detected referring to the detection method described for the assay kit.
(Changes in cAMP serve as a functional read-out for many G protein-coupled receptors.)

Data set [3] is described as follows: Effect on body weight of DIO mice after 14 days' administration. The note with it: for body weight reduction (in words): 14 days, conclusions on Tables 3 and 5. The format is in vivo, C57BL/6J mice. In outline: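 C57BL/6J mice on H10060 high-fat diet for 34 weeks (DIO; 45.0–52.0 g), 5 per group, dosed subcutaneously once daily for 14 days; controls received saline. Body weight change (%) = (initial − last-day weight)/initial weight; positive values mean loss.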

Data set [4] can be described thus: Glucose tolerance test in glucose-loaded DIO mice. More on the design: AUC reduction rate (%), Table 6: concentration or dose not given beside the values. Format: in vivo. The note with it: for glucose tolerance / blood glucose lowering (in words): conclusions on Tables 4 and 6. In a few lines: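 DIO mice fasted 16 h received compound subcutaneously; 1 h later, glucose 1 g/kg was given intraperitoneally. Blood glucose measured at 0.5, 1 and 1.5 h; AUC compared with model control group to give blood glucose inhibition rate (%).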

Data set [5] addresses T2, GC receptor (Homo sapiens, UniProt P47871).
T2 construct: expressed in transfected cells; host or cells: HEK293 cells
Put plainly: GC receptor mediated cAMP production in vitro (HEK293 cells transfected with GC receptor). The format is cell-based. Particulars: 20 min at 37° C., read-out: GCGR (nM EC50).
Text: as §1

The nature of data set [6]: Short-term administration: food intake and body weight in DIO mice. The format is in vivo. The note with it: 30 nmol/kg once every 24 h, twice, − decrease; for Rate of change in food intake (%): at 48 hours vs day before administration; for Body weight change: at 48 hours. In outline: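 DIO mice (mean body weight 52.5 g), 5 per group, dosed at 30 nmol/kg every 24 h for two doses, in 10 mM PBS pH 7.4; controls received solvent. Food intake and body weight at 48 h expressed as change rate versus the day before dosing.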

Data set [7] can be described thus: physchem. The format is physicochemical.
Setting [8] is: pH 7.5, Solubility, pH 7.5, 10 mM phosphate buffer.
[9] abbreviates: pH 7.5, Solubility, pH 7.5, 20 mM phosphate buffer.
Setting [10] is: pH 8, Solubility, pH 8.0, 10 mM phosphate buffer.
Where [11] appears, read: pH 8, Solubility, pH 8.0, 20 mM phosphate buffer.
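Throughout, for Solubility: compound added at 2 mg per mL of phosphate buffer, with the dissolved amount determined in the supernatant.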

T2 sequence (P47871 26-477): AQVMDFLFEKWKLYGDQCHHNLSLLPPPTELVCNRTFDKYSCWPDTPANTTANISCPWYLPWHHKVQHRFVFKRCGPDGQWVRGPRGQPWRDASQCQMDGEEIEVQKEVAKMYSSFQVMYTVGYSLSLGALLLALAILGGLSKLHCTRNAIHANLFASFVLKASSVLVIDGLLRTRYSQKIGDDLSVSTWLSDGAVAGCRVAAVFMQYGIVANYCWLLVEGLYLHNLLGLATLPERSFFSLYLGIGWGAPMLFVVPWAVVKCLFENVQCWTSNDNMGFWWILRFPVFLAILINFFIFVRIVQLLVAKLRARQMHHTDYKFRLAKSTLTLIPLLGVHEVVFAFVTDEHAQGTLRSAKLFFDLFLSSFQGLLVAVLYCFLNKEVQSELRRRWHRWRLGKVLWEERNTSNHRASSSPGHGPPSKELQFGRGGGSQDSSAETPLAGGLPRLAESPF
T1 sequence (P43220 24-463): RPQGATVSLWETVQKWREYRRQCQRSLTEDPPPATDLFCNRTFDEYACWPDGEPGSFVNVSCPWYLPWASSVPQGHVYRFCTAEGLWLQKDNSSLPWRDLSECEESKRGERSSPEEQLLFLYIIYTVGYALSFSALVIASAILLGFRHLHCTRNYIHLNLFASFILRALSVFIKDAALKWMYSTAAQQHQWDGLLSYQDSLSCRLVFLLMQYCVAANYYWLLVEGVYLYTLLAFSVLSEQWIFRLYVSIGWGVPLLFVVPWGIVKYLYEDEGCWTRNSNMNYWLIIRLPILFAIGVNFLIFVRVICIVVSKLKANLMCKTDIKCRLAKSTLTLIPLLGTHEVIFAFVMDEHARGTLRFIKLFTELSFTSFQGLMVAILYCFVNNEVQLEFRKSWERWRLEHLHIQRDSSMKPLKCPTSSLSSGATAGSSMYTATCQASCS

Turning to `CCCCCCCCCCCCCCCC(=O)N[C@@H](CCC(=O)N[C@@H](CCC(=O)NCCCC[C@H](NC(=O)[C@H](CC(=O)O)NC(=O)[C@H](CO)NC(=O)[C@@H](NC(=O)[C@H](Cc1ccccc1)NC(=O)[C@@H](NC(=O)CNC(=O)[C@H](CCC(N)=O)NC(=O)C(C)(C)NC(=O)[C@@H](N)Cc1c[nH]cn1)[C@@H](C)O)[C@@H](C)O)C(=O)N[C@@H](CO)C(=O)N[C@@H](CCCCN)C(=O)N[C@@H](Cc1ccc(O)cc1)C(=O)N[C@@H](CC(C)C)C(=O)N[C@@H](CCC(=O)O)C(=O)N[C@@H](CCC(=O)O)C(=O)N[C@@H](CCCNC(=N)N)C(=O)N[C@@H](C)C(=O)N[C@@H](C)C(=O)N[C@@H](CCCCN)C(=O)N[C@@H](CCC(=O)O)C(=O)N[C@@H](Cc1ccccc1)C(=O)N[C@H](C(=O)N[C@@H](C)C(=O)N[C@@H](Cc1c[nH]c2ccccc12)C(=O)N[C@@H](CC(C)C)C(=O)N[C@@H](CCC(=O)O)C(=O)N[C@@H](C)C(=O)NCC(=O)NCC(=O)N1CCC[C@H]1C(=O)N[C@@H](CO)C(=O)N[C@@H](CO)C(=O)NCC(N)=O)C(C)C)C(=O)O)C(=O)O` [Compound 4] (HELM PEPTIDE1{H.[Aib].Q.G.T.F.T.S.D.K.S.K.Y.L.E.E.R.A.A.K.E.F.V.A.W.L.E.A.G.G.P.S.S.G.[am]}|PEPTIDE2{[CCCCCCCCCCCCCCCC(=O)[*:2]].[gGlu].[gGlu]}$PEPTIDE1,PEPTIDE2,10:R3-3:R2$$$V2.0; N-terminus assumed), in data set [1], the “Change in purity % (10° C.)” value is recorded as −0.9%. In data set [1], the “Change in purity % (37° C.)” value is −3.7%. In addition, the EC50 in data set [2] stood at 0.051 nM; in data set [5], 0.024 nM. Further, the “body weight change rate, Table 3” value in data set [3] (DIO mice, subcutaneous injection every day for 14 days, (initial−last)/initial, positive values indicate a decrease) amounted to 26.0%. In addition, in data set [4] (DIO mice fasted 16 h, glucose 1 g/kg i.p. 1 h after s.c. administration, 0.5, 1, 1.5 h), the “AUC of blood glucose, Table 4” value is 9.02 ± 1.74 mmol·h/L. In addition, the “AUC reduction rate (%), Table 4” value in data set [4] (blood glucose inhibition rate compared with model control group, DIO mice, glucose 1 g/kg i.p.) was 57.4** %. Besides, the “Rate of change in food intake (%)” value in data set [6] is reported as −42%. In data set [6], the “Body weight change” value was -1.5 g. The solubility was 1820 µg/mL (≈ 437 µM) in data set [7] (setting [8]), 1220 µg/mL (≈ 293 µM) in data set [7] (setting [9]), greater than 2000 µg/mL in data set [7] (setting [10]) and greater than 2000 µg/mL in data set [7] (setting [11]).
Turning to `CC[C@H](C)[C@H](NC(=O)[C@H](Cc1ccccc1)NC(=O)[C@H](CCC(=O)O)NC(=O)[C@H](CCCCN)NC(=O)[C@H](C)NC(=O)[C@H](C)NC(=O)[C@H](CCCNC(=N)N)NC(=O)[C@H](CCC(=O)O)NC(=O)[C@H](CCC(=O)O)NC(=O)[C@H](CC(C)C)NC(=O)[C@H](Cc1ccc(O)cc1)NC(=O)[C@H](CCCCN)NC(=O)[C@H](CO)NC(=O)[C@H](CCCCNC(=O)COCCOCCNC(=O)COCCOCCNC(=O)CC[C@H](NC(=O)CCCCCCCCCCCCCCCCC(=O)O)C(=O)O)NC(=O)[C@H](CC(=O)O)NC(=O)[C@H](CO)NC(=O)[C@@H](NC(=O)[C@H](Cc1ccccc1)NC(=O)[C@@H](NC(=O)CNC(=O)[C@H](CCC(N)=O)NC(=O)C(C)(C)NC(=O)[C@@H](N)Cc1c[nH]cn1)[C@@H](C)O)[C@@H](C)O)C(=O)N[C@@H](C)C(=O)N[C@@H](Cc1c[nH]c2ccccc12)C(=O)N[C@@H](CC(C)C)C(=O)N[C@@H](CCC(=O)O)C(=O)NCC(=O)NCC(=O)N1CCC[C@H]1C(=O)N[C@@H](CO)C(=O)N[C@@H](CO)C(=O)NCC(N)=O` [Compound 6] (H-H[Aib]QGTFTSDK([AEEA-AEEA-γGlu-C18 diacid])SKYLEERAAKEFIAWLEGGPSSG-NH2; N-terminus assumed), the EC50 in data set [2] came to 0.439 nM; in data set [5], 0.052 nM. Further, the “body weight change, Table 5” value in data set [3] (Example 4, DIO mice, 14 days' administration, methods as in Example 3, positive values indicate a decrease) is recorded as 28.32. Moreover, the “AUC of blood glucose, Table 6” value in data set [4] (Example 4, DIO mice under glucose load, methods as in Example 3) was 8.99 ± 1.46 mmol·h/L. The “AUC reduction rate (%), Table 6” value in data set [4] (Example 4, compared with model control group, DIO mice under glucose load) is reported as 54.7** %. Besides, the solubility is 1390 µg/mL (≈ 321 µM) in data set [7] (setting [8]), 980 µg/mL (≈ 226 µM) in data set [7] (setting [9]), greater than 2000 µg/mL in data set [7] (setting [10]) and 1620 µg/mL (≈ 374 µM) in data set [7] (setting [11]).
As for `CC[C@H](C)[C@H](NC(=O)[C@H](Cc1ccccc1)NC(=O)[C@H](CCC(=O)O)NC(=O)[C@H](CCCCN)NC(=O)[C@H](C)NC(=O)[C@H](C)NC(=O)[C@H](CCCNC(=N)N)NC(=O)[C@H](CCC(=O)O)NC(=O)[C@H](CCC(=O)O)NC(=O)[C@H](CC(C)C)NC(=O)[C@H](Cc1ccc(O)cc1)NC(=O)[C@H](CCCCN)NC(=O)[C@H](CO)NC(=O)[C@H](CCCCNC(=O)COCCOCCNC(=O)COCCOCCNC(=O)CC[C@H](NC(=O)CCCCCCCCCCCCCCCCCCC(=O)O)C(=O)O)NC(=O)[C@H](CC(=O)O)NC(=O)[C@H](CO)NC(=O)[C@@H](NC(=O)[C@H](Cc1ccccc1)NC(=O)[C@@H](NC(=O)CNC(=O)[C@H](CCC(N)=O)NC(=O)C(C)(C)NC(=O)[C@@H](N)Cc1c[nH]cn1)[C@@H](C)O)[C@@H](C)O)C(=O)N[C@@H](C)C(=O)N[C@@H](Cc1c[nH]c2ccccc12)C(=O)N[C@@H](CC(C)C)C(=O)N[C@@H](CCC(=O)O)C(=O)N[C@@H](C)C(=O)NCC(=O)NCC(=O)N1CCC[C@H]1C(=O)N[C@@H](CO)C(=O)N[C@@H](CO)C(=O)NCC(N)=O` [Compound 35] (H-H[Aib]QGTFTSDK([AEEA-AEEA-γGlu-C20 diacid])SKYLEERAAKEFIAWLEAGGPSSG-NH2; N-terminus assumed), the “Change in purity % (10° C.)” value in data set [1] is listed as −0.6%. Further, in data set [1], the “Change in purity % (37° C.)” value is given as −3.1%. For the same compound, the EC50 was 0.044 nM in data set [2] and 0.036 nM in data set [5]. The “body weight reduction (in words)” value in data set [3] (DIO mice) is “significantly reduced body weight”. The “glucose tolerance / blood glucose lowering (in words)” value in data set [4] (DIO mice) is given as “significantly improved glucose tolerance”. Besides, in data set [6], the “Rate of change in food intake (%)” value is listed as −59%. The “Body weight change” value in data set [6] was -3.2 g. Besides, the solubility is 1840 µg/mL (≈ 416 µM) in data set [7] (setting [8]), 1170 µg/mL (≈ 264 µM) in data set [7] (setting [9]), greater than 2000 µg/mL in data set [7] (setting [10]) and greater than 2000 µg/mL in data set [7] (setting [11]).
Take `CC(C)C[C@H](NC(=O)[C@H](Cc1c[nH]c2ccccc12)NC(=O)[C@H](CCC(=O)O)NC(=O)[C@@H](NC(=O)[C@H](Cc1ccccc1)NC(=O)[C@H](CCC(=O)O)NC(=O)[C@H](CCCCNC(=O)COCCOCCNC(=O)COCCOCCNC(=O)CC[C@H](NC(=O)CCCCCCCCCCCCCCCCC(=O)O)C(=O)O)NC(=O)[C@H](C)NC(=O)[C@H](CCCNC(=N)N)NC(=O)[C@H](CCCCN)NC(=O)[C@H](CCC(=O)O)NC(=O)[C@H](CCC(=O)O)NC(=O)[C@H](CC(C)C)NC(=O)[C@H](Cc1ccc(O)cc1)NC(=O)[C@H](CCCCN)NC(=O)[C@H](CO)NC(=O)[C@H](Cc1ccc(O)cc1)NC(=O)[C@H](CC(=O)O)NC(=O)[C@H](CO)NC(=O)[C@@H](NC(=O)[C@H](Cc1ccccc1)NC(=O)[C@@H](NC(=O)CNC(=O)[C@H](CCC(N)=O)NC(=O)C(C)(C)NC(=O)[C@@H](N)Cc1c[nH]cn1)[C@@H](C)O)[C@@H](C)O)C(C)C)C(=O)N[C@@H](CCC(=O)O)C(=O)N[C@@H](C)C(=O)NCC(=O)NCC(=O)N1CCC[C@H]1C(=O)N[C@@H](CO)C(=O)N[C@@H](CO)C(=O)NCC(N)=O` [Compound 54] (H-H[Aib]QGTFTSDYSKYLEEKRAK([AEEA-AEEA-γGlu-C18 diacid])EFVEWLEAGGPSSG-NH2; N-terminus assumed): the concentration for a half-maximal effect (EC50) was 0.219 nM in data set [2] and 0.274 nM in data set [5]. Further, the “body weight reduction (in words)” value in data set [3] (DIO mice) is on record as “significantly reduced body weight”. Moreover, in data set [4] (DIO mice), the “glucose tolerance / blood glucose lowering (in words)” value was “significantly improved glucose tolerance”. Also, the “Rate of change in food intake (%)” value in data set [6] is reported as −35%. Further, in data set [6], the “Body weight change” value is -0.9 g. In addition, the solubility in data set [7] (setting [8]) turned out to be 1260 µg/mL (≈ 278 µM); in data set [7] (setting [9]), 1080 µg/mL (≈ 238 µM); in data set [7] (setting [10]) it was 1920 µg/mL (≈ 423 µM); in data set [7] (setting [11]), 1180 µg/mL (≈ 260 µM).

By EC50 is commonly meant the concentration needed to bring the measured effect to its halfway point. As usually defined, the solubility is the dissolved amount per volume that the medium holds.
